Data as given in patent publication US20170240556A1, “BIFLUORODIOXALANE-AMINO-BENZIMIDAZOLE KINASE INHIBITORS FOR THE TREATMENT OF CANCER, AUTOIMMUNEINFLAMMATION AND CNS DISORDERS” (4SC DISCOVERY GMBH, priority 2012, published 2017).
pIC50: −log10 of the molar value.

Target: Casein kinase 1 delta (CSKN1D) (Homo sapiens, UniProt P48730)
Assay: Casein kinase assay, CK1 delta
Format: biochemical
Settings: recombinant CSKN1D 5 nM, ATP 10 μM
Experimental: The recombinant protein Casein kinase 1 delta (CSKN1D) was added to the substrate solution in a concentration of 5 nM and gently mixed. Dilution series in of compounds of the present invention in DMSO were added to the reaction mixture, followed after 20 min by addition of a mixture of ATP and ^33P-ATP (specific activity 0.01 μCi/μl final) to a final concentration of 10 μM. Reactions were carried out at 25° C. for 120 min, followed by spotting the reactions onto P81 ion exchange filter paper. Unbound phosphate was removed by washing of the filters in 0.75% phosphoric acid. […] IC50 values and curve fits were obtained using the program Prism® (Graph Pad Software).

Chain of Casein kinase 1 delta (CSKN1D) (P48730 whole entry): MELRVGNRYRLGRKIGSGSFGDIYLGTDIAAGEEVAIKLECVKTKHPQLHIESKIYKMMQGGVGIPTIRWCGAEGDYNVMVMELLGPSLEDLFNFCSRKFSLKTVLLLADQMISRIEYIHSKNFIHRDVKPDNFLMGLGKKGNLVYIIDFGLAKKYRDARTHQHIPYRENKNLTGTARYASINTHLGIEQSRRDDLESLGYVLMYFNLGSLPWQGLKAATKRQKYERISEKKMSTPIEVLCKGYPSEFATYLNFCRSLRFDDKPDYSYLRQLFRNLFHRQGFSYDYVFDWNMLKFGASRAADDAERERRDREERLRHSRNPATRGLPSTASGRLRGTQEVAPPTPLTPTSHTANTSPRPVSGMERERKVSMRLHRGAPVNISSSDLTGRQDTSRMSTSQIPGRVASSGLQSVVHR

Structure (SMILES) | pIC50
CCN(CC)c1ccc(C(=O)Nc2nc3cc4c(cc3[nH]2)OC(F)(F)O4)cc1 [Compound 74, 4-(diethylamino)-N-(2,2-difluoro-5H-[1,3]dioxolo[4′,5′:4,5]benzo[1,2-d]imidazol-6-yl)benzamide] | 6.00 to 6.70
O=C(Nc1nc2cc3c(cc2[nH]1)OC(F)(F)O3)c1ccc([N+](=O)[O-])cc1 [Compound 58, N-(2,2-difluoro-5H-[1,3]dioxolo[4′,5′:4,5]benzo[1,2-d]imidazol-6-yl)-4-nitrobenzamide] | 6.00 to 6.70
NC(=O)c1ccc(C(=O)Nc2nc3cc4c(cc3[nH]2)OC(F)(F)O4)c(F)c1 [Compound 94, N^1-(2,2-difluoro-5H-[1,3]dioxolo[4′,5′:4,5]benzo[1,2-d]imidazol-6-yl)-2-fluoroterephthalamide] | > 6.70
O=C(Nc1nc2cc3c(cc2[nH]1)OC(F)(F)O3)c1cccc(O)c1 [Compound 113, N-(2,2-difluoro-5H-[1,3]dioxolo[4′,5′:4,5]benzo[1,2-d]imidazol-6-yl)-3-hydroxybenzamide] | > 6.70
O=C(Nc1nc2cc3c(cc2[nH]1)OC(F)(F)O3)c1csc(-c2cccc(F)c2)n1 [Compound 12B, N-(2,2-difluoro-5H-[1,3]dioxolo[4′,5′:4,5]benzo[1,2-d]imidazol-6-yl)-2-(3-fluorophenyl)thiazole-4-carboxamide] | > 6.70
O=C(Nc1nc2cc3c(cc2[nH]1)OC(F)(F)O3)c1cncc(N2CCOCC2)c1 [Compound 25B, N-(2,2-difluoro-5H-[1,3]dioxolo[4′,5′:4,5]benzo[1,2-d]imidazol-6-yl)-5-morpholinonicotinamide] | > 6.70
Cc1cc(C(=O)Nc2nc3cc4c(cc3[nH]2)OC(F)(F)O4)nn1C [Compound 146, N-(2,2-difluoro-5H-[1,3]dioxolo[4′,5′:4,5]benzo[1,2-d]imidazol-6-yl)-1,5-dimethyl-1H-pyrazole-3-carboxamide] | < 6.00
Cc1onc(-c2ccccc2)c1C(=O)Nc1nc2cc3c(cc2[nH]1)OC(F)(F)O3 [Compound 50, N-(2,2-difluoro-5H-[1,3]dioxolo[4′,5′:4,5]benzo[1,2-d]imidazol-6-yl)-5-methyl-3-phenylisoxazole-4-carboxamide] | < 6.00
O=C(Nc1nc2cc3c(cc2[nH]1)OC(F)(F)O3)c1csc(-c2cccc(OC(F)(F)F)c2)n1 [Compound 19B] | 6.00 to 6.70
O=C(Nc1nc2cc3c(cc2[nH]1)OC(F)(F)O3)c1ccccn1 [Compound 67, N-(2,2-difluoro-5H-[1,3]dioxolo[4′,5′:4,5]benzo[1,2-d]imidazol-6-yl)picolinamide] | < 6.00
O=C(Nc1nc2cc3c(cc2[nH]1)OC(F)(F)O3)c1cccc(C(F)(F)F)c1 [Compound 66, N-(2,2-difluoro-5H-[1,3]dioxolo[4′,5′:4,5]benzo[1,2-d]imidazol-6-yl)-3-(trifluoromethyl)benzamide] | > 6.70
CCNc1ccc(C(=O)Nc2nc3cc4c(cc3[nH]2)OC(F)(F)O4)cc1 [Compound 77, N-(2,2-difluoro-5H-[1,3]dioxolo[4′,5′:4,5]benzo[1,2-d]imidazol-6-yl)-4-(ethylamino)benzamide] | > 6.70
O=C(Nc1nc2cc3c(cc2[nH]1)OC(F)(F)O3)C1CCCCC1 [Compound 80, N-(2,2-difluoro-5H-[1,3]dioxolo[4′,5′:4,5]benzo[1,2-d]imidazol-6-yl)cyclohexanecarboxamide] | > 6.70
Nc1ccc(C(=O)Nc2nc3cc4c(cc3[nH]2)OC(F)(F)O4)cc1C(F)(F)F [Compound 126, 4-amino-N-(2,2-difluoro-5H-[1,3]dioxolo[4′,5′:4,5]benzo[1,2-d]imidazol-6-yl)-3-(trifluoromethyl)benzamide] | > 6.70
O=C(Nc1nc2cc3c(cc2[nH]1)OC(F)(F)O3)c1csc(-c2ccsc2)n1 [Compound 81, N-(2,2-difluoro-5H-[1,3]dioxolo[4′,5′:4,5]benzo[1,2-d]imidazol-6-yl)-2-(thiophen-3-yl)thiazole-4-carboxamide] | > 6.70
COc1cc(C(=O)Nc2nc3cc4c(cc3[nH]2)OC(F)(F)O4)ccn1 [Compound 124, N-(2,2-difluoro-5H-[1,3]dioxolo[4′,5′:4,5]benzo[1,2-d]imidazol-6-yl)-2-methoxyisonicotinamide] | > 6.70
NS(=O)(=O)c1cccc(C(=O)Nc2nc3cc4c(cc3[nH]2)OC(F)(F)O4)c1 [Compound 100, N-(2,2-difluoro-5H-[1,3]dioxolo[4′,5′:4,5]benzo[1,2-d]imidazol-6-yl)-3-sulfamoylbenzamide] | > 6.70
COC(=O)c1cccc(C(=O)Nc2nc3cc4c(cc3[nH]2)OC(F)(F)O4)c1 [Compound 105, methyl 3-((2,2-difluoro-5H-[1,3]dioxolo[4′,5′:4,5]benzo[1,2-d]imidazol-6-yl)carbamoyl)benzoate] | > 6.70

Structure (SMILES) | pIC50
O=C(Nc1nc2cc3c(cc2[nH]1)OC(F)(F)O3)c1cccc(N2CCCCC2)c1 [Compound 128, N-(2,2-difluoro-5H-[1,3]dioxolo[4′,5′:4,5]benzo[1,2-d]imidazol-6-yl)-3-(piperidin-1-yl)benzamide] | > 6.70
NS(=O)(=O)c1ccc(C(=O)Nc2nc3cc4c(cc3[nH]2)OC(F)(F)O4)cn1 [Compound 112, N-(2,2-difluoro-5H-[1,3]dioxolo[4′,5′:4,5]benzo[1,2-d]imidazol-6-yl)-6-sulfamoylnicotinamide] | > 6.70
O=C(Nc1nc2cc3c(cc2[nH]1)OC(F)(F)O3)c1cccc(-c2nnn[nH]2)c1 [Compound 118, N-(2,2-difluoro-5H-[1,3]dioxolo[4′,5′:4,5]benzo[1,2-d]imidazol-6-yl)-3-(1H-tetrazol-5-yl)benzamide] | > 6.70
O=C(Nc1nc(C(=O)Nc2nc3cc4c(cc3[nH]2)OC(F)(F)O4)ns1)c1ccsc1 [Compound 10B, N-(2,2-difluoro-5H-[1,3]dioxolo[4′,5′:4,5]benzo[1,2-d]imidazol-6-yl)-5-(thiophene-3-carboxamido)-1,2,4-thiadiazole-3-carboxamide] | > 6.70
CCOC(=O)c1cc(C)n(-c2cccc(C(=O)Nc3nc4cc5c(cc4[nH]3)OC(F)(F)O5)c2)c1C [Compound 139, ethyl 1-(3-((2,2-difluoro-5H-[1,3]dioxolo[4′,5′:4,5]benzo[1,2-d]imidazol-6-yl)carbamoyl)phenyl)-2,5-dimethyl-1H-pyrrole-3-carboxylate] | > 6.70
O=C(Nc1nc2cc3c(cc2[nH]1)OC(F)(F)O3)c1sccc1Cl [Compound 64, 3-chloro-N-(2,2-difluoro-5H-[1,3]dioxolo[4′,5′:4,5]benzo[1,2-d]imidazol-6-yl)thiophene-2-carboxamide] | < 6.00
O=C(Nc1nc2cc3c(cc2[nH]1)OC(F)(F)O3)c1ccc(F)cc1 [Compound 119, N-(2,2-difluoro-5H-[1,3]dioxolo[4′,5′:4,5]benzo[1,2-d]imidazol-6-yl)-4-fluorobenzamide] | 6.00 to 6.70
O=C(Nc1nc2cc3c(cc2[nH]1)OC(F)(F)O3)c1cc[nH]n1 [Compound 73, N-(2,2-difluoro-5H-[1,3]dioxolo[4′,5′:4,5]benzo[1,2-d]imidazol-6-yl)-1H-pyrazole-3-carboxamide] | < 6.00
N#Cc1ccc(C(=O)Nc2nc3cc4c(cc3[nH]2)OC(F)(F)O4)c(F)c1 [Compound 93, 4-cyano-N-(2,2-difluoro-5H-[1,3]dioxolo[4′,5′:4,5]benzo[1,2-d]imidazol-6-yl)-2-fluorobenzamide] | < 6.00
COc1cccc(C(=O)Nc2nc3cc4c(cc3[nH]2)OC(F)(F)O4)n1 [Compound 24B] | 6.00 to 6.70
O=C(Nc1nc2cc3c(cc2[nH]1)OC(F)(F)O3)c1cccc(F)c1 [Compound 70, N-(2,2-difluoro-5H-[1,3]dioxolo[4′,5′:4,5]benzo[1,2-d]imidazol-6-yl)-3-fluorobenzamide] | > 6.70
O=C(Nc1nc2cc3c(cc2[nH]1)OC(F)(F)O3)c1cccc([N+](=O)[O-])c1 [Compound 65, N-(2,2-difluoro-5H-[1,3]dioxolo[4′,5′:4,5]benzo[1,2-d]imidazol-6-yl)-3-nitrobenzamide] | > 6.70
CS(=O)(=O)Nc1cccc(C(=O)Nc2nc3cc4c(cc3[nH]2)OC(F)(F)O4)c1 [Compound 108, N-(2,2-difluoro-5H-[1,3]dioxolo[4′,5′:4,5]benzo[1,2-d]imidazol-6-yl)-3-(methylsulfonamido)benzamide] | > 6.70
Nc1ccc(C(=O)Nc2nc3cc4c(cc3[nH]2)OC(F)(F)O4)cc1F [Compound 127, 4-amino-N-(2,2-difluoro-5H-[1,3]dioxolo[4′,5′:4,5]benzo[1,2-d]imidazol-6-yl)-3-fluorobenzamide] | 6.00 to 6.70
O=C(Nc1nc2cc3c(cc2[nH]1)OC(F)(F)O3)c1cncc(-c2ccco2)c1 [Compound 4B, N-(2,2-difluoro-5H-[1,3]dioxolo[4′,5′:4,5]benzo[1,2-d]imidazol-6-yl)-5-(furan-2-yl)nicotinamide] | > 6.70
O=C(Nc1nc2cc3c(cc2[nH]1)OC(F)(F)O3)c1csc(-c2ccc3c(c2)OCCO3)n1 [Compound 82, N-(2,2-difluoro-5H-[1,3]dioxolo[4′,5′:4,5]benzo[1,2-d]imidazol-6-yl)-2-(2,3-dihydrobenzo[b][1,4]dioxin-6-yl)thiazole-4-carboxamide] | > 6.70
NS(=O)(=O)c1ccc(C(=O)Nc2nc3cc4c(cc3[nH]2)OC(F)(F)O4)cc1 [Compound 62, N-(2,2-difluoro-5H-[1,3]dioxolo[4′,5′:4,5]benzo[1,2-d]imidazol-6-yl)-4-sulfamoylbenzamide] | > 6.70
CC(C)c1nc(-c2cccc(C(=O)Nc3nc4cc5c(cc4[nH]3)OC(F)(F)O5)c2)no1 [Compound 131, N-(2,2-difluoro-5H-[1,3]dioxolo[4′,5′:4,5]benzo[1,2-d]imidazol-6-yl)-3-(5-isopropyl-1,2,4-oxadiazol-3-yl)benzamide] | > 6.70
